According to ChEMBL document CHEMBL5143739, “Design and Discovery of MRTX0902, a Potent, Selective, Brain-Penetrant, and Orally Bioavailable Inhibitor of the SOS1:KRAS Protein-Protein Interaction” (J Med Chem, 2022):

Assays:
[1] = In vivo inhibition of ERK phosphorylation in human MIA PaCa-2 cells harbouring KRAS G12C mutant xenografted in athymic nude Foxn1 nu mouse assessed as phosphorylated ERK level at 10 mg/kg, po qd measured after 4 hrs relative to total ERK; assay type: functional
[2] = Inhibition of human recombinant SOS2 catalytic domain/human recombinant GST-KRAS G12C mutant expressed in Escherichia coli assessed as inhibition of interaction
[3] = In vivo inhibition of ERK phosphorylation in human MIA PaCa-2 cells harbouring KRAS G12C mutant xenografted in athymic nude Foxn1 nu mouse assessed as phosphorylated ERK level at 10 mg/kg, po qd in presence of 50 mg/kg MRTX849 measured after 4 hrs relative to total ERK; assay type: functional
[4] = Free plasma concentration in CD-1 mouse at 100 mg/kg, po measured on 1 hr; assay type: ADME, organism-based; settings: in vivo
[5] = Inhibition of N-terminal his-tagged human recombinant SOS2/C-terminal Avi-biotinylated-tagged human recombinant KRAS expressed in Escherichia coli assessed as inhibition of GDP exchange rate by TR-FRET assay
[6] = In vivo inhibition of ERK phosphorylation in human MIA PaCa-2 cells harbouring KRAS G12C mutant xenografted in athymic nude Foxn1 nu mouse assessed as phosphorylated ERK level at 10 mg/kg, po qd in presence of 25 mg/kg MRTX849 measured after 4 hrs relative to total ERK; assay type: functional

With `C=C(F)C(=O)N1CCN(c2nc(OC[C@@H]3CCCN3C)nc3c2CCN(c2cccc4cccc(Cl)c24)C3)C[C@@H]1CC#N` [ADAGRASIB] as the compound, how does the inhibition in vivo at 10 mg/kg [1] read?
Its inhibition in vivo at 10 mg/kg is 21%.

Which IC50 [2] does the source give for `CNCc1ccccc1-c1csc([C@@H](C)Nc2nc(C)nc3cc(OC)c(OC)cc23)c1` [BAY-293] here?
Its IC50 is 0.021 µM.

What does the source list for `Cc1c(C#N)cccc1[C@@H](C)Nc1nnc(C)c2cnc(N3CCOCC3)cc12` [MRTX-0902]?
inhibition in vivo at 10 mg/kg [3]: 81%; Cp(f) [4]: 134 nM; IC50 [5]: > 10 µM; inhibition in vivo at 10 mg/kg [6]: 66%
